Results reported in publication PMC6664433 (Cancer discovery, 2019).

Columns and labels:
EGFR = assay: Biotinylated EAI045 pull-down assay; type: binding; details: following osimertinib treatment
EGFR-mutant models = details: without cetuximab; cited from earlier work
[1] = test system: EGFR-mutant NSCLC patients; details: cited from earlier work; for PFS: osimertinib vs comparator arm gefitinib or erlotinib; for median PFS: patients with an L858R mutation, comparator arm gefitinib or erlotinib
H3255GR cells [2] = assay: Cell viability assay; details: 72 hours
H3255GR cells [3] = assay: IncuCyte Caspase-3/7 apoptosis assay; type: cell-based, human; details: 0.1μM osimertinib, 10μM allosteric inhibitor, or both; 72 hours
[4] = test system: patients with EGFR T790M-mediated drug resistance; details: cited from earlier work
[5] = test system: H1975 xenograft mouse model; details: for tumor volume change at day 18: osimertinib 2.5mg/kg, JBJ-04-125-02 100mg/kg, or both
[6] = test system: H1975 xenograft mouse model; assay: Pharmacodynamic study in H1975 xenograft; details: 3 doses; JBJ-04-125-02 100mg/kg, osimertinib 25mg/kg
H3255GR cells [7] = assay: IncuCyte long-term confluency assay; type: cell-based, human; details: osimertinib 1μM, JBJ-04-125-02 10μM or both, 2 weeks of treatment
[8] = test system: patients with advanced EGFR mutant NSCLC; details: initial therapy; cited from earlier work
[9] = test system: EGFR L858R/T790M/C797S genetically engineered mice; assay: Efficacy study in GEM mice; type: in vivo
[10] = test system: EGFR L858R/T790M/C797S genetically engineered mice; assay: Pharmacodynamic study in GEM mice; type: in vivo; details: oral gavage once daily, 3 doses
L858R/T790M EGFR = L858R/T790M EGFR (Homo sapiens, UniProt P00533, L858R/T790M); assay: HTRF-based EGFR biochemical assay; details: read-out: IC50 (biochemical potency); enzyme 20pM, 100µM ATP
MAP4K5 = MAP4K5 (Homo sapiens, UniProt Q9Y4K4); assay: KINOMEscan kinome selectivity profiling; type: binding; details: 10µM
[11] = test system: Ba/F3 cell lines stably transfected with EGFR L858R, L858R/T790M or L858R/T790M/C797S; assay: Ba/F3 cell proliferation; type: cell-based, murine; details: single agent, 72 hours
H1975 cells [12] = assay: Cell viability assay; details: 72 hours
[13] = test system: Ba/F3 cells harboring EGFR Del_19 variants; assay: Ba/F3 cell proliferation; type: cell-based, murine; details: 72 hours
[14] = test system: Ba/F3 cells containing the L858R/C797S mutation; assay: Ba/F3 cell proliferation; type: cell-based, murine; details: compared to gefitinib
Pharmacokinetic study = type: in vivo
parental Ba/F3 cells = assay: Ba/F3 cell proliferation; type: cell-based, murine; details: 72 hours
L858R/T790M Ba/F3 cells = assay: ENU mutagenesis resistant colony assay; details: after ENU; 1μM osimertinib, 10μM JBJ-04-125-02, or combination; of 300 colonies
H1975 cells [15] = assay: Western blotting of EGFR, AKT, ERK1/2 phosphorylation; details: 4 hours, compared to osimertinib
TIE2 = TIE2 (Homo sapiens, UniProt Q02763); assay: KINOMEscan kinome selectivity profiling; type: binding; details: 10µM
[16] = test system: wild-type EGFR Ba/F3 cells; assay: Ba/F3 cell proliferation; type: cell-based, murine; details: 72 hours
panel of 468 kinases = assay: KINOMEscan kinome selectivity profiling; type: binding, human; details: 10µM, 35% cut-off
TIE1 = TIE1 (Homo sapiens, UniProt P35590); assay: KINOMEscan kinome selectivity profiling; type: binding; details: 10µM
[17] = test system: Del_19-containing EGFR mutants; assay: KINOMEscan kinome selectivity profiling; type: binding, human; details: 10µM

## O=C(Nc1nccs1)C(c1cc(F)ccc1O)N1Cc2ccccc2C1=O (stereo not drawn) [EAI045]
EGFR
  co-binding with osimertinib: did indeed co-bind with osimertinib and increase EGFR precipitation
EGFR-mutant models
  single agent efficacy: not effective as a single agent

## C#Cc1cccc(Nc2ncnc3cc(OCCOC)c(OCCOC)cc23)c1 [erlotinib]
[1]
  PFS: 10.2 months
  median PFS: 9.5 months

## C=CC(=O)Nc1cc(Nc2nccc(-c3cn(C)c4ccccc34)n2)c(OC)cc1N(C)CCN(C)C [osimertinib, reference compound]
H3255GR cells [2]
  sensitivity of cell proliferation: sensitive
[1]
  PFS: 18.9 months
  median PFS: 14.4 months
H3255GR cells [3]
  apoptosis (Caspase-3/7 activity): time-dependent increase in apoptosis
[4]
  progression free survivals (PFS): 9.9–12.3 months
  response rate (RR): 62–71%
[5]
  tumor volume change at day 18: minimal reduction in tumor volume
[5]; osimertinib 25mg/kg alone or with JBJ-04-125-02 100mg/kg, 28 days
  tumor regression: ~100%
[6]
  EGFR, AKT and ERK1/2 phosphorylation in tumors: complete inhibition of EGFR phosphorylation
H3255GR cells [7]
  confluency at 2 weeks: 24%
[8]
  PFS: 19.3 months
  RR: 77%

## O=C(Nc1nccs1)C(c1ccccc1)N1Cc2ccc(-c3ccc4[nH]ccc4c3)cc2C1=O (stereo not drawn) [JBJ-02-112-05]
[9]; 100mg/kg
  change in tumor volume: ineffective
[10]; 100mg/kg
  phosphorylation of EGFR and downstream signaling in tumors: also inhibited phosphorylation of EGFR and downstream signaling pathways although not as robustly as JBJ-04-125-02
L858R/T790M EGFR
  IC50: 15 nM

## O=C(Nc1nccs1)C(c1cc(F)ccc1O)N1Cc2ccc(-c3ccc(N4CCNCC4)cc3)cc2C1=O (stereo not drawn) [JBJ-04-125-02]
MAP4K5
  % control: 9.5 % control
[11]
  inhibition of cell proliferation: could inhibit cell proliferation as a single agent
H1975 cells [12]
  concentration inhibiting cell proliferation: low nanomolar concentrations
[9]; 50mg/kg long-term treatment
  weight loss or signs of toxicity: not associated with weight loss or overt signs of toxicity
[9]; 50mg/kg, within 4 weeks, sustained for 15 weeks
  change in tumor volume: marked tumor regressions
H3255GR cells [2]
  sensitivity of cell proliferation: resistant
[13]
  sensitivity of cell proliferation: resistant
[14]
  inhibition of cell proliferation: not as potent as gefitinib in inhibiting cell proliferation
Pharmacokinetic study; 3 mg/kg intravenous (IV) dose
  area under the curve (AUClast): 728577 ng·min/mL
  half-life: 3 h
Pharmacokinetic study; 20mg/kg oral dose
  average maximal plasma concentration: 1.1 µM
  oral bioavailability: 3%
H3255GR cells [3]
  apoptosis (Caspase-3/7 activity): no more effective than DMSO
[10]; 50mg/kg and 100mg/kg
  phosphorylation of EGFR, AKT and ERK1/2 in tumors: effectively inhibited phosphorylation of EGFR, AKT and ERK1/2
Parental Ba/F3 cells
  inhibition of growth: did not inhibit the growth
L858R/T790M Ba/F3 cells
  resistant colonies: 72%
[5]
  tumor volume change at day 18: minimal reduction in tumor volume
[5]; osimertinib 25mg/kg, JBJ-04-125-02 100mg/kg, 35 days
  tumor growth: tumor stasis and occasional shrinkage in some mice
[6]
  EGFR, AKT and ERK1/2 phosphorylation in tumors: reduction in EGFR phosphorylation but only subtle changes in AKT and ERK1/2 phosphorylation
H1975 cells [15]
  EGFR and ERK1/2 phosphorylation: downregulate EGFR and ERK1/2 phosphorylation more potently than osimertinib
H3255GR cells [7]
  confluency at 2 weeks: reached full confluency
TIE2
  % control: 33 % control
[16]
  inhibition of growth: did not inhibit the growth
Panel of 468 kinases
  S-Score (35): 0.02
TIE1
  % control: 29 % control
[17]
  binding affinity: lacks binding affinity
